Data from PMC10455244, “Alpha-Mangostin: A Potent Inhibitor of TRPV3 and Pro-Inflammatory Cytokine Secretion in Keratinocytes” (International Journal of Molecular Sciences, 2023).

Assays:
[1] = test system: TNF-α; test: ELISA, TNF-α release in NHEK; format: cell-based, human; conditions: 1 µM with 300 µM carvacrol, 24 h
From the text: Constitutive activation of TRPV3 due to continuous stimulation or the presence of Olmsted mutations causes noticeable skin inflammation due to the increased secretion of pro-inflammatory cytokines from the keratinocytes. Besides, in atopic dermatitis (AD), cytokine release from keratinocytes contributes to the inflammatory environment, which drives many characteristic AD symptoms. Therefore, we determined the effect of TRPV3 activation on cytokine release instead of TRPV3 expression and evaluated whether alpha-mangostin suppressed TRPV3-mediated cytokine secretion in normal human keratinocytes. The levels of secreted cytokines (interleukin (IL)-6, IL-8, and tumor necrosis factor-alpha (TNF-α)) were measured using enzyme-linked Immunosorbent assay (ELISA) kits due to their high sensitivity and quantitation ability. The cells were induced with 300 µM carvacrol, with or without 1 µM alpha-mangostin, and 10 µM 74a.
Figure 5 Alpha-mangostin (α-MG) inhibited carvacrol-induced cytokine release in NHEK cells and rescued carvacrol-induced cell death. (A) Alpha-mangostin inhibited the carvacrol-induced release of IL-8 and IL-6 in NHEK. Cells were induced by 300 µM carvacrol with or without either 1 µM alpha-mangostin or 10 µM 74a for 24 h before the ELISA assay. (B) Alpha-mangostin reduced cell death caused by carvacrol in human keratinocytes. […]

[2] = test system: TRPV1; conditions: read-out: IC50 (µM), channel inhibited TRPV1; cited from earlier work
[3] = molecular target: T1, TRPV3 (Homo sapiens, UniProt Q8NET8); test: Whole-cell patch-clamp, 2-APB-evoked TRPV3 current in normal human epidermal keratinocytes (NHEK); format: cell-based; parameters: host or cells: NHEK; conditions: 100 µM 2-APB, −100 mV, read-out: TRPV3 current inhibited to (normalized to maximum 2-APB response)
T1 sequence (Q8NET8 1-790): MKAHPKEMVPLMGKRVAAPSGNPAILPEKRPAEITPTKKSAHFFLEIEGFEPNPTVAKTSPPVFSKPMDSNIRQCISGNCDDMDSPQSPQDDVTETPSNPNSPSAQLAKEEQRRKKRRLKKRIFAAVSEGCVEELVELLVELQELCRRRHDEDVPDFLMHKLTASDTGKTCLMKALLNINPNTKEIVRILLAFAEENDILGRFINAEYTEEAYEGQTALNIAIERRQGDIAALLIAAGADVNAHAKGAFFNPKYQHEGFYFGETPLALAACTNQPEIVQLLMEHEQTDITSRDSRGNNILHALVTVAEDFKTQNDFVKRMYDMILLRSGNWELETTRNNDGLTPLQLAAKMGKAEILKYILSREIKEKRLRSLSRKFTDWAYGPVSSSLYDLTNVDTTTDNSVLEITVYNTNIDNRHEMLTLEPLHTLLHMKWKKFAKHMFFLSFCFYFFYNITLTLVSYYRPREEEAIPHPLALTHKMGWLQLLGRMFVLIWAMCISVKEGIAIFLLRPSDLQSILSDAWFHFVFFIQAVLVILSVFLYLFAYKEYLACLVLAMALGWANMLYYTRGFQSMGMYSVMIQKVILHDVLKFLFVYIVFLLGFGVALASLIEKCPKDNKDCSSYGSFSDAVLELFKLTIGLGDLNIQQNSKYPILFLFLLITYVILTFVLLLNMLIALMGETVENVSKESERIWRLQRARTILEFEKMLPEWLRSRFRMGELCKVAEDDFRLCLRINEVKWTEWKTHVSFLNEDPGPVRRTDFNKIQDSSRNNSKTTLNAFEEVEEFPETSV

For COc1c(O)cc2oc3cc(O)c(CC=C(C)C)c(O)c3c(=O)c2c1CC=C(C)C [Alpha-mangostin], the “Effect on TNF-α levels” value [1] is given as “no changes”, the IC50 [2] is given as 0.43 ± 0.27 µM and the activity at 0.3 µM ([3]; 0.3 µM) is given as 75.1%. The activity at 3 µM ([3]; 3 µM) was 27%.
